The source of these data is US11795177B2, “Substituted quinoline analogs as aldehyde dehydrogenase 1A1 (ALDH1A1) inhibitors” (THE UNITED STATES OF AMERICA, AS REPRESENTED BY THE …, priority 2017, dated 2023).

As usually defined, the IC50 is the midpoint of a concentration-inhibition curve.

This assay concerns MIA PaCa-2 cells. The assay can be described thus: MIA PaCa2 cell-based assay (1,536-well high-content imaging ALDEFLUOR assay). Also noted: species or system human. To be noted: Homo sapiens, 0.5 h, ALDEFLUOR BAAA substrate 500 nM, 30 minutes. As to the method: Example 359. MIA PaCa2 Cell-Based Assay (In Vitro Assay)
1,536-Well High-Content Imaging ALDEFLUOR Assay
The ALDEFLUOR™ kit was purchased from […] Technologies (Vancouver, Canada; #01700). MIA PaCa-2 cells (5 μL; 1,000 cells/well) were dispensed into black, optical quality (cyclic olefin copolymer) clear bottom, medium binding TC treated 1,536-well plates (Aurora Microplates, Whitefish Mont.) using a Multidrop Combi dispenser (ThermoFisher) and incubated overnight (37° C., 5% CO2, 85% RH). Media (RPMI 1640 (Life Technologies, Carlsbad, Calif.), supplemented with 2 mM L-Glutamine (Life Technologies), 10% HyClone™ fetal bovine serum (FBS, GE Healthcare, Piscataway, N.J.) and 100 U/mL penicillin and 100 μg/mL streptomycin (Life Technologies)) was subsequently removed by centrifuging plates upside down using a plate adaptor to collect media. A solution of BAAA substrate ([…] Technologies) and Hoechst 33342 (ThermoFisher, final concentrations of 500 nM and 0.5 nM, respectively) in ALDEFLUOR™ buffer ([…] Technologies #01700) was dispensed onto cells using a Multidrop Combi followed by immediate transfer (23 nL) of compound or control solutions using a Wako Pin-tool (final percentage of DMSO in the cell plates was 0.5%). Unless otherwise noted, all compounds were assayed as 16-point dilutions spanning a final concentration range of 1.4 nM to 47.8 μM. The neutral and positive assay controls were DMSO and DEAB (4.6 μM), respectively. Cells were incubated for 30 minutes or the indicated amount of time at 37° C., 5% CO2, 85% RH to allow the conversion of BAAA into BAA. Supernatant was subsequently removed by centrifugation as described above, then ALDEFLUOR™ buffer (3 μl) was dispensed by Multidrop Combi before imaging on an IN Cell 2200 (GE Healthcare).
The above assay was modified for an online robotic screening system. After cell plating and overnight incubation, 4 μL of media were removed using a 64-tip metal aspirator head on a Wako aspirator station, leaving 1 μL remaining in the well, followed by a 4 μL dispense of BAAA and Hoechst 33342 in ALDEFLUOR™ buffer, for a final concentration of 500 nM and 0.5 nM, respectively Immediately following the dispense, 23 nL of compound or control solutions were transferred using a Wako Pin-tool. Cells were incubated for 30 minutes at 37° C., 5% CO2, 85% RH, followed by a 4 μL media removal using the Wako aspirator, and a subsequent 3 μL addition of ALDEFLUOR™ buffer. Plates were then immediately read on the IN Cell 2200 as described below.
Image Acquisition and Analysis
For images captured on the IN Cell 2200 widefield automated microscope, a 10×0.45 NA Plan Apo objective lens was used to capture the entire well of the 1,536-well plate using standard DAPI (390/18×, 432/48 m) and FITC (475/28×, 525/48 m) filter sets at 50 msec and 100 msec exposures, respectively. Images were subsequently analyzed using IN Cell Investigator v1.6.2 analysis software's canned Multi-Target Analysis algorithm (GE Healthcare). Hoechst stained nuclei were identified using top hat segmentation with a minimum area of 75 μm^2 and sensitivity of 93. BAA-retaining cells captured via FITC channel, were identified using multiscale top hat segmentation with a minimum area of 100 μm^2 and a sensitivity setting of 16. […] Data were plotted using GraphPad Prism software (GraphPad, San Diego, Calif.).

Compound `CC(C)(C)c1ccc(-c2c(C(=O)N3CCN(C(=O)C4CC4)CC3)cnc3ccc(F)cc23)cc1` [Example 84, (4-(4-(tert-butyl)phenyl)-6-fluoroquinolin-3-yl)(4-(cyclopropanecarbonyl)piperazin-1-yl)methanone] came in with an IC50 of under 500 nM.
The value for `CS(=O)(=O)N1CCN(C(=O)c2cnc3cc(F)c(F)cc3c2-c2ccc(C3(C#N)CC3)cc2)CC1` [Cpd. 323, 1-(4-(6,7-difluoro-3-(4-(methylsulfonyl)piperazine-1-carbonyl)quinolin-4-yl)phenyl)cyclopropane-1-carbonitrile] was under 500 nM; that for `N#CC1(Cc2ccccc2)CCN(c2c(C(=O)N3CCN(C(=O)C4CC4)CC3)cnc3ccc(F)cc23)CC1` [Example 244, 4-benzyl-1-(3-(4-(cyclopropanecarbonyl)piperazine-1-carbonyl)-6-fluoroquinolin-4-yl)piperidine-4-carbonitrile] was over 10000 nM; that for `CS(=O)(=O)N1CCN(C(=O)c2cnc3ccc(F)cc3c2-c2ccc(C3(C#N)CCCC3)cc2)CC1` [Cpd. 309, 1-(4-(6-fluoro-3-(4-(methylsulfonyl)piperazine-1-carbonyl)quinolin-4-yl)phenyl)cyclopentanecarbonitrile] was under 500 nM.
Under `CS(=O)(=O)N1CCN(C(=O)c2cnc3ccc(F)cc3c2N2CCC(C#N)(c3ccccc3F)CC2)CC1` [Example 274, 1-(6-fluoro-3-(4-(methylsulfonyl)piperazine-1-carbonyl)quinolin-4-yl)-4-(2-fluorophenyl)piperidine-4-carbonitrile] stands under 500 nM; under `Cc1cc(F)cc2c(N3CCC4(CC3)OCCO4)c(C(=O)N3CCN(C(=O)C4CC4)CC3)cnc12` [Example 73, (4-(cyclopropanecarbonyl)piperazin-1-yl)(6-fluoro-8-methyl-4-(1,4-dioxa-8-azaspiro[4.5]decan-8-yl)quinolin-3-yl)methanone], 1000 to 10000 nM; under `CS(=O)(=O)N1CCN(C(=O)c2cnc3ccc(F)cc3c2-c2ccc(C3(C#N)CC3)cc2)CC1` [Example 210, 1-(4-(6-fluoro-3-(4-(methylsulfonyl)piperazine-1-carbonyl)quinolin-4-yl)phenyl)cyclopropanecarbonitrile], under 500 nM.
Under `N#CC1(c2ccccc2)CCN(c2c(C(=O)Nc3cnn(CC(N)=O)c3)cnc3ccc(F)cc23)CC1` [Cpd. 352, N-(1-(2-amino-2-oxoethyl)-1H-pyrazol-4-yl)-4-(4-cyano-4-phenylpiperidin-1-yl)-6-fluoroquinoline-3-carboxamide] stands under 500 nM; under `O=C(c1cnc2ccc(F)cc2c1N1CCC2(CCCCC2)C1)N1CCN(C(=O)C2CC2)CC1` [Example 79, (4-(cyclopropanecarbonyl)piperazin-1-yl)(6-fluoro-4-(2-azaspiro[4.5]decan-2-yl)quinolin-3-yl)methanone], over 10000 nM.
Regarding `CS(=O)(=O)N1CCN(C(=O)c2cnc3cc(F)c(F)cc3c2N2CCC(C#N)(c3ccccc3)CC2)CC1` [Cpd. 319, 1-(6,7-difluoro-3-(4-(methylsulfonyl)piperazine-1-carbonyl)quinolin-4-yl)-4-phenylpiperidine-4-carbonitrile], the IC50 was under 500 nM.
The value for `CN(C)S(=O)(=O)N1CCN(C(=O)c2cnc3ccc(F)cc3c2-c2ccc(C3(C#N)CC3)cc2)CC1` [Example 260, 4-(4-(4-(1-cyanocyclopropyl)phenyl)-6-fluoroquinoline-3-carbonyl)-N,N-dimethylpiperazine-1-sulfonamide] was under 500 nM.
Under `O=C(c1cnc2ccc(F)cc2c1N1CCC2(CCCCC2)CC1)N1CCN(C(=O)C2CC2)CC1` [Example 75, (4-(cyclopropanecarbonyl)piperazin-1-yl)(6-fluoro-4-(3-azaspiro[5.5]undecan-3-yl)quinolin-3-yl)methanone] stands 1000 to 10000 nM; under `CC1(C#N)CCN(c2c(C(=O)N3CCN(S(C)(=O)=O)C(C)(C)C3)cnc3ccc(F)cc23)CC1` [Example 229, 1-(3-(3,3-dimethyl-4-(methylsulfonyl)piperazine-1-carbonyl)-6-fluoroquinolin-4-yl)-4-methylpiperidine-4-carbonitrile], over 10000 nM.
The value for `CC1(C#N)CCN(c2c(C(=O)N3CCC(S(C)(=O)=O)CC3)cnc3ccc(F)cc23)CC1` [Example 188, 1-(6-fluoro-3-(4-(methylsulfonyl)piperidine-1-carbonyl)quinolin-4-yl)-4-methylpiperidine-4-carbonitrile] was 1000 to 10000 nM; that for `CC(C)(C#N)c1ccc(-c2c(C(=O)N3CCN(S(C)(=O)=O)CC3)cnc3ccc(F)cc23)c(F)c1` [Cpd. 311, 2-(3-fluoro-4-(6-fluoro-3-(4-(methylsulfonyl)piperazine-1-carbonyl)quinolin-4-yl)phenyl)-2-methylpropanenitrile] was under 500 nM.
Compound `O=C(c1cnc2ccc(F)cc2c1N1CC2CCC(C2)C1)N1CCN(C(=O)C2CC2)CC1` [Example 82, (4-(3-azabicyclo[3.2.1]octan-3-yl)-6-fluoroquinolin-3-yl)(4-(cyclopropanecarbonyl)piperazin-1-yl)methanone] yielded an IC50 of over 10000 nM.
Under `CS(=O)(=O)N1CCN(C(=O)c2cnc3ccc(F)cc3c2N2CCC3(CC2)C(=O)Cc2ccccc23)CC1` [Example 247, 1′-(6-fluoro-3-(4-(methylsulfonyl)piperazine-1-carbonyl)quinolin-4-yl)spiro[indene-1,4′-piperidin]-2(3H)-one] stands 1000 to 10000 nM.
For `N#CC1(CC2CC2)CCN(c2c(C(=O)N3CCN(C(=O)C4CC4)CC3)cnc3ccc(F)cc23)CC1` [Example 242, 1-(3-(4-(cyclopropanecarbonyl)piperazine-1-carbonyl)-6-fluoroquinolin-4-yl)-4-(cyclopropylmethyl)piperidine-4-carbonitrile], the IC50 was in the range of 500 to 1000 nM.
Under `CS(=O)(=O)N1CCN(C(=O)c2cnc3ccsc3c2N2CCC(C#N)(c3ccccc3)CC2)CC1` [Example 285, 1-(6-(4-(methylsulfonyl)piperazine-1-carbonyl)thieno[3,2-b]pyridin-7-yl)-4-phenylpiperidine-4-carbonitrile] stands under 500 nM; under `CC1(C#N)CCN(c2c(C(=O)N3CCN(S(C)(=O)=O)CC3)cnc3sccc23)CC1` [Example 217, 4-methyl-1-(5-(4-(methylsulfonyl)piperazine-1-carbonyl)thieno[2,3-b]pyridin-4-yl)piperidine-4-carbonitrile], 1000 to 10000 nM.
Under `O=C(c1cnc2ccc(Cl)cc2c1N1CCC2(CC1)OCCO2)N1CCN(C(=O)C2CC2)CC1` [Example 45, (6-chloro-4-(1,4-dioxa-8-azaspiro[4.5]decan-8-yl)quinolin-3-yl)(4-(cyclopropanecarbonyl)piperazin-1-yl)methanone] stands 1000 to 10000 nM.
Under `COc1ccc2ncc(CN3CCN(C(=O)C4CC4)CC3)c(N3CCC4(CC3)OCCO4)c2c1` [Example 57, Cyclopropyl(4-((6-methoxy-4-(1,4-dioxa-8-azaspiro[4.5]decan-8-yl)quinolin-3-yl)methyl)piperazin-1-yl)methanone] stands over 10000 nM; under `CS(=O)(=O)N1CCN(C(=O)c2cnc3ccc(F)cc3c2N2CCC(C=O)(c3ccccc3)CC2)CC1` [Example 257, 1-(6-fluoro-3-(4-(methylsulfonyl)piperazine-1-carbonyl)quinolin-4-yl)-4-phenylpiperidine-4-carbaldehyde], under 500 nM.
